Measurements taken from patent US11760764B2, “Methods and compositions for targeting PD-L1” (Aligos Therapeutics, Inc., priority 2020, dated 2023).

Columns and labels:
[1] = molecular target: T1, PD-1/PD-L1 interaction (Jurkat cells overexpressing PD-1 co-cultured with PD-L1 expressing CHO cells) (Homo sapiens, UniProt Q9NZQ7); assay: PD-1/PD-L1 NFAT Reporter Assay; format: cell-based; conditions: Table C-1; Jurkat/CHO co-culture, 6 hrs at 37° C., luciferase activity
T1 construct: expressed in transfected cells; Jurkat cells (PD-1 and NF-AT luciferase construct)
T1 sequence (Q9NZQ7 19-290): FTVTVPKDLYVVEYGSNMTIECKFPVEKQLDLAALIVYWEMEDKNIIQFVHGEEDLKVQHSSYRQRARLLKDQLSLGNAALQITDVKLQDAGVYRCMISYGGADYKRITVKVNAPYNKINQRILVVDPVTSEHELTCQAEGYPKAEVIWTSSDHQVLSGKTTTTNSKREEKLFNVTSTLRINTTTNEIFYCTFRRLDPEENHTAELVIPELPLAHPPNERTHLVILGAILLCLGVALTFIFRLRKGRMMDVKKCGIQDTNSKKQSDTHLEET
Description: Blocking the PD-1/PD-L1 interaction will release the inhibitory signal and results in TCR signaling and NFAT-mediated luciferase activity.
CHO cells expressing surface-bound anti-CD3 antibodies and PD-L1 were first seeded overnight and treated with the compounds. Jurkat cells overexpressing PD-1 and a luciferase construct under NF-AT promoter were then immediately seeded on the monolayer of CHO cells. The co-culture was then incubated for 6 hrs at 37° C. Luciferase activity was assessed by adding the ONE-Glo reagent and measuring luminescence with a plate reader. EC50s values were determined from the fit of the dose-response curves

[2] = molecular target: PD-1/PD-L1 interaction (PDL1-6×His protein, PD1-Fc-Avi-Biotin protein) (Homo sapiens, UniProt Q9NZQ7); assay: PDL1/PD1 Binding Assay; conditions: Table C; 0.3 nM PDL1, 2.5 nM PD1; read-out: PD-1/PD-L1 PPI IC50
Chain of PD-1/PD-L1 interaction (PDL1-6×His protein, PD1-Fc-Avi-Biotin protein) (Q9NZQ7 19-238 limits assumed): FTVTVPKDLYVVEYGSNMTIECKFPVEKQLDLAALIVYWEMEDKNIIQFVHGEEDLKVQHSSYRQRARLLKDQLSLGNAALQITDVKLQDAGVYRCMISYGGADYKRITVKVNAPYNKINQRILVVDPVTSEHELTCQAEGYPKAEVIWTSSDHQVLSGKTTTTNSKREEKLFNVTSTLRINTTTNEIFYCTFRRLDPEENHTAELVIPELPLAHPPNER
Description: Compounds to be tested were serially diluted in DMSO, and further diluted in assay buffer (25 mM Hepes pH 7.4, 150 mM NaCl, 0.005% Tween 20, BSA 0.01%). Diluted compounds were added to the wells with final concentration of DMSO at 1%. PDL1-6×His protein was added to the wells, mixed well with compound. The plates were incubated for 30 min at room temperature. PD1-Fc-Avi-Biotin protein was added to the wells. […] After a binding time of 30 min at room temperature, Anti-6×His Acceptor beads (final concentration 20 ug/ml) were added to the wells, and the incubation continued for 1 h. Streptavidin Donor beads (final concentration 20 ug/mL) were added at reduced light. The plates were sealed with foil and incubated in the dark for additional 1 h or overnight before reading on an Envision reader. The IC50s were determined by fitting the curves using a four-parameter equation in Graphpad Prism 8.

IC50 [2] | SMILES | further results
≤ 0.01 µM | O=C(O)C[C@H](O)CN1Cc2ccc(-c3cccc(-c4cccc(-c5ccc6c(c5)CN(C[C@@H](O)CC(=O)O)C6)c4Cl)c3Cl)cc2C1 [Compound C-1] | –
≤ 0.01 µM | O=C(O)C[C@H](O)CN1CCc2cc(-c3cccc(-c4cccc(-c5ccc6c(c5)CCN(C[C@@H](O)CC(=O)O)C6)c4Cl)c3Cl)ccc2C1 [Compound C-2] | –
0.1 to 1 µM | O=C(O)C[C@H](O)CN1CCc2nc(-c3cccc(-c4cccc(-c5ccc6c(n5)CCN(C[C@@H](O)CC(=O)O)C6)c4Cl)c3Cl)ccc2C1 [Compound C-3] | –
0.01 to 0.1 µM | O=C(O)C[C@H](O)CN1CCc2cc(-c3cccc(-c4cccc(-c5cc6c(cn5)CN(C[C@@H](O)CC(=O)O)CC6)c4Cl)c3Cl)ncc2C1 [Compound C-4] | –
1 to 10 µM | O=C(O)C[C@H](O)CN1CCOc2nc(-c3cccc(-c4cccc(-c5ccc6c(n5)OCCN(C[C@@H](O)CC(=O)O)C6)c4Cl)c3Cl)ccc2C1 [Compound C-5] | –
≤ 0.01 µM | O=C(O)C[C@H](O)CN1CCc2ccc(-c3cccc(-c4cccc(-c5ccc6c(c5)CN(C[C@@H](O)CC(=O)O)CC6)c4Cl)c3Cl)cc2C1 [Compound C-6] | –
0.1 to 1 µM | CC1(C)CN(C[C@@H](O)CC(=O)O)Cc2ccc(-c3cccc(-c4cccc(-c5ccc6c(c5)C(C)(C)CN(C[C@@H](O)CC(=O)O)C6)c4Cl)c3Cl)cc21 [Compound C-7] | –
≤ 0.01 µM | O=C(O)C[C@H](O)CN1CCc2cc(-c3cccc(-c4cccc(-c5cc(F)c6c(c5)CCN(C[C@@H](O)CC(=O)O)C6)c4Cl)c3Cl)cc(F)c2C1 [Compound C-8] | –
≤ 0.01 µM | CC1Cc2cc(-c3cccc(-c4cccc(-c5ccc6c(c5)CC(C)N(C[C@@H](O)CC(=O)O)C6)c4Cl)c3Cl)ccc2CN1C[C@@H](O)CC(=O)O (stereo partly shown) [Compound C-9] | –
0.1 to 1 µM | CCOC(=O)CN[C@H]1CCc2cc(-c3cccc(-c4cccc(-c5ccc6c(c5)CC[C@@H]6NCC(=O)OCC)c4Cl)c3Cl)ccc21 [Compound F-1] | –
≤ 0.01 µM | O=C(O)CN1CCc2ccc(-c3cccc(-c4cccc(-c5ccc6c(c5)CN(CC(=O)O)CC6)c4Cl)c3Cl)cc2C1 [Compound H-1] | –
≤ 0.01 µM | O=C(O)CN1CCc2cc(-c3cccc(-c4cccc(-c5ccc6c(c5)CCN(CC(=O)O)C6)c4Cl)c3Cl)ccc2C1 [Compound H-2] | –
0.1 to 1 µM | O=C(O)CN1CCC12CCc1cc(-c3cccc(-c4cccc(-c5ccc6c(c5)CCC5(CCN5CC(=O)O)C6)c4Cl)c3Cl)ccc1C2 (stereo not shown) [Compound H-3] | –
0.01 to 0.1 µM | O=C(O)CN1CC2(C1)OCc1cc(-c3cccc(-c4cccc(-c5ccc6c(c5)COC65CN(CC(=O)O)C5)c4Cl)c3Cl)ccc12 [Compound H-4] | –
> 10 µM | CC(=O)N1CC(N2CCOc3nc(-c4cccc(-c5cccc(-c6ccc7c(n6)OCCN(C6CN(C(C)=O)C6)C7)c5Cl)c4Cl)ccc3C2)C1 [Compound I-1] | –
0.01 to 0.1 µM | N[C@@H](CC(=O)O)C(=O)N1CCc2ccc(-c3cccc(-c4cccc(-c5ccc6c(c5)CN(C(=O)[C@@H](N)CC(=O)O)CC6)c4Cl)c3Cl)cc2C1 [Compound J-1] | –
1 to 10 µM | Clc1c(-c2ccc3c(c2)CCNC3)cccc1-c1cccc(-c2ccc3c(c2)CCN(c2ncccn2)C3)c1Cl [Compound K-1] | –

Continued, compound first:

SMILES | IC50 [2] | further results
COc1cc(-c2cccc(-c3cccc(-c4cc5c(c(OC)c4)[C@H](NC[C@@H]4CCC(=O)N4)CC5)c3Cl)c2Cl)cc2c1[C@H](NC[C@@H]1CCC(=O)N1)CC2 (single isomer, unassigned) [Compound L-1] | – | EC50 [1]: 0.01 to 0.1 µM
COc1cc(-c2cccc(-c3cccc(-c4cc5c(c(OC)c4)[C@@H](NC[C@@H]4CCC(=O)N4)CC5)c3Cl)c2Cl)cc2c1[C@@H](NC[C@@H]1CCC(=O)N1)CC2 (single isomer, unassigned) [Compound L-2] | – | EC50 [1]: > 10 µM
CCOC(=O)C1CN([C@H]2CCc3cc(-c4cccc(-c5cccc(-c6cc7c(c(OC)n6)[C@@H](NC[C@@H]6CCC(=O)N6)CC7)c5Cl)c4Cl)nc(OC)c32)C1 (single isomer, unassigned) [Compound N-1A] | – | EC50 [1]: 0.01 to 0.1 µM
COc1nc(-c2cccc(-c3cccc(-c4cc5c(c(OC)n4)[C@@H](N4CC(C(=O)O)C4)CC5)c3Cl)c2Cl)cc2c1[C@@H](NC[C@@H]1CCC(=O)N1)CC2 (single isomer, unassigned) [Compound N-1B] | – | EC50 [1]: ≤ 0.01 µM
CCOC(=O)C1CN([C@H]2CCc3cc(-c4cccc(-c5cccc(-c6cc7c(c(OC)c6)[C@@H](NC[C@@H]6CCC(=O)N6)CC7)c5Cl)c4Cl)cc(OC)c32)C1 (single isomer, unassigned) [Compound N-2A] | – | PD-1/PD-L1 NFAT Reporter Assay [1]: n.r
COc1cc(-c2cccc(-c3cccc(-c4cc5c(c(OC)c4)[C@@H](N4CC(C(=O)O)C4)CC5)c3Cl)c2Cl)cc2c1[C@@H](NC[C@@H]1CCC(=O)N1)CC2 (single isomer, unassigned) [Compound N-2B] | – | EC50 [1]: 0.1 to 1 µM
CCOC(=O)C1CN([C@H]2CCc3cc(-c4cccc(-c5cccc(-c6cc7c(c(OC)c6)[C@H](NC[C@@H]6CCC(=O)N6)CC7)c5Cl)c4Cl)cc(OC)c32)C1 (single isomer, unassigned) [Compound N-3A] | – | EC50 [1]: 0.01 to 0.1 µM
COc1cc(-c2cccc(-c3cccc(-c4cc5c(c(OC)c4)[C@@H](N4CC(C(=O)O)C4)CC5)c3Cl)c2Cl)cc2c1[C@H](NC[C@@H]1CCC(=O)N1)CC2 (single isomer, unassigned) [Compound N-3B] | – | EC50 [1]: 0.01 to 0.1 µM
CCOC(=O)C1CN(C2CCc3cc(-c4cccc(-c5cccc(-c6cc7c(c(OC)n6)CCN(CCOC)C7)c5Cl)c4Cl)cc(OC)c32)C1 (single isomer, unassigned) [Compound O-2A] | – | EC50 [1]: 0.1 to 1 µM
O=C(O)CNC1CCc2cc(-c3cccc(-c4cccc(-c5ccc6c(c5)CCC6NCC(=O)O)c4Cl)c3Cl)ccc21 (stereo not shown) [Compound A-1] | ≤ 0.01 µM | –
CC(=O)NCCNC1CCc2cc(-c3cccc(-c4cccc(-c5ccc6c(c5)CCC6NCCNC(C)=O)c4Cl)c3Cl)ccc21 (stereo not shown) [Compound A-3] | 0.01 to 0.1 µM | –
CC(=O)NCCNC1Cc2ccc(-c3cccc(-c4cccc(-c5ccc6c(c5)CC(NCCNC(C)=O)C6)c4Cl)c3Cl)cc2C1 (stereo not shown) [Compound A-4] | 0.01 to 0.1 µM | –
O=C(O)CNC1Cc2ccc(-c3cccc(-c4cccc(-c5ccc6c(c5)CC(NCC(=O)O)C6)c4Cl)c3Cl)cc2C1 (stereo not shown) [Compound A-5] | ≤ 0.01 µM | –
O=C1CC[C@@H](CNC2Cc3ccc(-c4cccc(-c5cccc(-c6ccc7c(c6)CC(NC[C@@H]6CCC(=O)N6)C7)c5Cl)c4Cl)cc3C2)N1 (stereo partly shown) [Compound A-6] | ≤ 0.01 µM | –
O=C1CC[C@@H](CNC2Cc3ccc(-c4cccc(-c5cccc(-c6ccc7c(c6)CC(O)C7)c5Cl)c4Cl)cc3C2)N1 (stereo partly shown) [Compound A-7] | 0.1 to 1 µM | –
Clc1c(-c2ccc3c(c2)CC(N2CCOCC2)C3)cccc1-c1cccc(-c2ccc3c(c2)CC(N2CCOCC2)C3)c1Cl (stereo not shown) [Compound A-8] | 0.1 to 1 µM | –

SMILES | IC50 [2] | further results
Clc1c(-c2ccc3c(c2)CCNC3)cccc1-c1cccc(-c2ccc3c(c2)CCNC3)c1Cl [Compound B-1] | ≤ 0.01 µM | –
Clc1c(-c2ccc3c(c2)CNC3)cccc1-c1cccc(-c2ccc3c(c2)CNC3)c1Cl [Compound B-2] | 0.01 to 0.1 µM | –
Clc1c(-c2ccc3c(n2)CCNC3)cccc1-c1cccc(-c2ccc3c(n2)CCNC3)c1Cl [Compound B-3] | 0.01 to 0.1 µM | –
Clc1c(-c2cc3c(cn2)CNCC3)cccc1-c1cccc(-c2cc3c(cn2)CNCC3)c1Cl [Compound B-4] | 0.01 to 0.1 µM | –
Clc1c(-c2ccc3c(n2)OCCNC3)cccc1-c1cccc(-c2ccc3c(n2)OCCNC3)c1Cl [Compound B-5] | 0.1 to 1 µM | –
N[C@H]1CCc2cc(-c3cccc(-c4cccc(-c5ccc6c(c5)CC[C@@H]6N)c4Cl)c3Cl)ccc21 [Compound B-7] | 0.1 to 1 µM | –
N[C@@H]1CCc2cc(-c3cccc(-c4cccc(-c5ccc6c(c5)CC[C@H]6N)c4Cl)c3Cl)ccc21 [Compound B-8] | 0.1 to 1 µM | –
CC1(C)CNCc2ccc(-c3cccc(-c4cccc(-c5ccc6c(c5)C(C)(C)CNC6)c4Cl)c3Cl)cc21 [Compound B-9] | 1 to 10 µM | –
Fc1cc(-c2cccc(-c3cccc(-c4cc(F)c5c(c4)CCNC5)c3Cl)c2Cl)cc2c1CNCC2 [Compound B-10] | 0.01 to 0.1 µM | –
Clc1c(-c2ccc3c(c2)COC32CNC2)cccc1-c1cccc(-c2ccc3c(c2)COC32CNC2)c1Cl [Compound B-12] | 1 to 10 µM | –
CC1Cc2cc(-c3cccc(-c4cccc(-c5ccc6c(c5)CC(C)NC6)c4Cl)c3Cl)ccc2CN1 (stereo not shown) [Compound B-13] | 0.01 to 0.1 µM | –
Cc1c(-c2cccc(-c3cccc(-c4ccc5c(c4C)CCNC5)c3Cl)c2Cl)ccc2c1CCNC2 [Compound B-14] | 0.1 to 1 µM | –
Cc1c(-c2cccc(-c3cccc(-c4ccc5c(c4C)CNCC5)c3Cl)c2Cl)ccc2c1CNCC2 [Compound B-15] | 1 to 10 µM | –
Cc1cc2c(cc1-c1cccc(-c3cccc(-c4cc5c(cc4C)CNCC5)c3Cl)c1Cl)CCNC2 [Compound B-16] | 0.1 to 1 µM | –
COc1cc(-c2cccc(-c3cccc(-c4cc5c(c(OC)c4)CNCC5)c3Cl)c2Cl)cc2c1CNCC2 [Compound B-17] | 0.01 to 0.1 µM | –
COc1nc(-c2cccc(-c3cccc(-c4cc5c(c(OC)n4)[C@@H](NC[C@@H]4CCC(=O)N4)CC5)c3Cl)c2Cl)cc2c1[C@@H](NC[C@@H]1CCC(=O)N1)CC2 [Compound L-3] | – | EC50 [1]: ≤ 0.01 µM
